Measurements taken from ChEMBL document CHEMBL1275464, “Characterization of the carbapenem-hydrolyzing oxacillinase oxa-58 in an Acinetobacter genospecies 3 clinical isolate” (2008).
≈ marks a conversion by molar mass, not a printed value.

Legend:
Assay type in all cases: functional
Acinetobacter baumannii [1] = assay: Antimicrobial activity against Acinetobacter baumannii isolate Ac058 expressing beta-lactamase Oxa-58 by broth microdilution method
Acinetobacter pittii = assay: Antimicrobial activity against Acinetobacter genospecies 3 isolate Ac057 expressing beta-lactamase Oxa-58 by broth microdilution method
Acinetobacter baumannii [2] = assay: Antimicrobial activity against Acinetobacter baumannii isolate Ac058 expressing beta-lactamase Oxa-58 by broth microdilution method in presence of beta-lactamase inhibitor Sulbactam

Compound NCC[C@H](O)C(=O)N[C@@H]1C[C@H](N)[C@@H](O[C@H]2O[C@H](CN)[C@@H](O)[C@H](O)[C@H]2O)[C@H](O)[C@H]1O[C@H]1O[C@H](CO)[C@@H](O)[C@H](N)[C@H]1O [AMIKACIN] has an MIC (Acinetobacter baumannii [1]) of 256 µg/mL (≈ 437 µM) and an MIC (Acinetobacter pittii) of 0.5 µg/mL (≈ 0.854 µM).

With CC1(C)S[C@@H]2[C@H](NC(=O)[C@H](N)c3ccccc3)C(=O)N2[C@H]1C(=O)O [AMPICILLIN] the MIC (Acinetobacter baumannii [1]) was 256 µg/mL (≈ 733 µM), the MIC (Acinetobacter pittii) was 256 µg/mL (≈ 733 µM) and the MIC (Acinetobacter baumannii [2]) was 64 µg/mL.

CC[C@H]1OC(=O)[C@H](C)[C@@H](O[C@H]2C[C@@](C)(OC)[C@@H](O)[C@H](C)O2)[C@H](C)[C@@H](O[C@@H]2O[C@H](C)C[C@H](N(C)C)[C@H]2O)[C@](C)(O)C[C@@H](C)CN(C)[C@H](C)[C@@H](O)[C@]1(C)O [AZITHROMYCIN] showed an MIC (Acinetobacter baumannii [1]) of 128 µg/mL (≈ 171 µM) and an MIC (Acinetobacter pittii) of 4 µg/mL (≈ 5.34 µM).

In the case of CO/N=C(\C(=O)N[C@@H]1C(=O)N2C(C(=O)[O-])=C(C[N+]3(C)CCCC3)CS[C@H]12)c1csc(N)n1 [CEFEPIME], the MIC (Acinetobacter baumannii [1]) is reported as 64 µg/mL (≈ 133 µM) and the MIC (Acinetobacter pittii) is reported as 8 µg/mL (≈ 16.6 µM).

For CO[C@@]1(NC(=O)Cc2cccs2)C(=O)N2C(C(=O)O)=C(COC(N)=O)CS[C@@H]21 [CEFOXITIN], the MIC (Acinetobacter baumannii [1]) was 256 µg/mL (≈ 599 µM) and the MIC (Acinetobacter pittii) was 256 µg/mL (≈ 599 µM).

With CC(C)(O/N=C(\C(=O)N[C@@H]1C(=O)N2C(C(=O)[O-])=C(C[n+]3ccccc3)CS[C@H]12)c1csc(N)n1)C(=O)O [CEFTAZIDIME] the MIC (Acinetobacter baumannii [1]) was 256 µg/mL (≈ 468 µM) and the MIC (Acinetobacter pittii) was 8 µg/mL (≈ 14.6 µM).

Compound CC(=O)OCC1=C(C(=O)O)N2C(=O)[C@@H](NC(=O)Cc3cccs3)[C@H]2SC1 [CEPHALOTHIN] has an MIC (Acinetobacter baumannii [1]) of 256 µg/mL (≈ 646 µM) and an MIC (Acinetobacter pittii) of 256 µg/mL (≈ 646 µM).

In the case of O=C(O)c1cn(C2CC2)c2cc(N3CCNCC3)c(F)cc2c1=O [CIPROFLOXACIN], the MIC (Acinetobacter pittii) is reported as 32 µg/mL (≈ 96.6 µM).

C[C@H]1c2cccc(O)c2C(=O)C2=C(O)[C@]3(O)C(=O)C(C(N)=O)=C(O)[C@@H](N(C)C)[C@@H]3[C@@H](O)[C@@H]21.O [DOXYCYCLINE] showed an MIC (Acinetobacter baumannii [1]) of 16 µg/mL and an MIC (Acinetobacter pittii) of less than 0.5 µg/mL.

For C[C@@H](O)[C@H]1C(=O)N2C(C(=O)O)=C(SCCNC=N)C[C@H]12 [IMIPENEM ANHYDROUS], the MIC (Acinetobacter baumannii [1]) was greater than 32 µg/mL and the MIC (Acinetobacter pittii) was greater than 32 µg/mL.

Work on C[C@@H](O)[C@H]1C(=O)N2C(C(=O)O)=C(S[C@@H]3CN[C@H](C(=O)N(C)C)C3)[C@H](C)[C@H]12 [MEROPENEM] yielded an MIC (Acinetobacter baumannii [1]) of 8 µg/mL (≈ 20.9 µM) and an MIC (Acinetobacter pittii) of 8 µg/mL (≈ 20.9 µM).

CCN1CCN(C(=O)N[C@@H](C(=O)N[C@@H]2C(=O)N3[C@@H]2SC(C)(C)[C@@H]3C(=O)O)c2ccccc2)C(=O)C1=O [PIPERACILLIN] was tested, and the MIC (Acinetobacter baumannii [1]) was 512 µg/mL (≈ 989 µM) and the MIC (Acinetobacter pittii) was 512 µg/mL (≈ 989 µM).

CO[C@H]1/C=C/O[C@@]2(C)Oc3c(C)c(O)c4c(O)c(c(/C=N/N5CCN(C)CC5)c(O)c4c3C2=O)NC(=O)/C(C)=C\C=C\[C@H](C)[C@H](O)[C@@H](C)[C@@H](O)[C@@H](C)[C@H](OC(C)=O)[C@@H]1C [RIFAMPIN] was tested, and the MIC (Acinetobacter baumannii [1]) was 2 µg/mL (≈ 2.43 µM) and the MIC (Acinetobacter pittii) was 2 µg/mL (≈ 2.43 µM).

With NC[C@H]1O[C@H](O[C@H]2[C@H](O)[C@@H](O[C@H]3O[C@H](CO)[C@@H](O)[C@H](N)[C@H]3O)[C@H](N)C[C@@H]2N)[C@H](N)C[C@@H]1O [TOBRAMYCIN] the MIC (Acinetobacter baumannii [1]) was 64 µg/mL (≈ 137 µM) and the MIC (Acinetobacter pittii) was 0.25 µg/mL (≈ 0.535 µM).

In the case of GENTAMICIN, the MIC (Acinetobacter baumannii [1]) is reported as 16 µg/mL and the MIC (Acinetobacter pittii) is reported as less than 1 µg/mL.

For POLYMYXIN B, the MIC (Acinetobacter baumannii [1]) was 1 µg/mL and the MIC (Acinetobacter pittii) was 2 µg/mL.
